In patent US20100041694A1, “AGRICULTURAL COMPOSITION FOR CONTROLLING OR PREVENTING PLANT DISEASES CAUSED BY PLANT PATHOGENIC MICROBES” (Sumitomo Chemical Company, Limited, priority 2007, published 2010):

Columns and labels:
Magnaporthe grisea = assay type: in vivo; conditions: rice (Nihonbare), flowable formulation 500 ppm foliage application; five days after the inoculation
Plasmopara viticola = assay: Treating grape downy mildew, foliage application; assay type: in vivo; conditions: grape (Berry-A), infected nursery plants, flowable formulation 500 ppm foliage application after inoculation (curative)
Method: Test Regarding Effects of Treating Grape Downy Mildew (Plasmopara viticola)
A plastic pot was filled with sandy soil, and grape (variety: Berry-A) was then disseminated. The grape plants were allowed to grow in a green house for 40 days. A water suspension of zoosporangium of Plasmopara viticola was inoculated to the aforementioned pot by spaying it. Thereafter, the grape plants were left at 23° C. at a high humidity for 1 day, and they were then air-dried, so as to obtain grape downy mildew-infected nursery plants. The aforementioned flowable formulation comprising compound 189 was set at a predetermine concentration (500 ppm) by diluting with water, and it was then subjected to foliage application such that it could be sufficiently attached to the leaves of the aforementioned nursery grape plants. After completion of the foliage application, the plants were subjected to air-drying, and they were then left at 23° C. in a green house for 5 days. Thereafter, the plants were further left at 23° C. at a high humidity for 1 day. Thereafter, the infected areas thereof were examined.

SMILES	infected areas of treated plants relative to infected areas of untreated plants (Magnaporthe grisea) [%]	infected areas of treated plants relative to infected areas of untreated plants (Plasmopara viticola) [%]
O=C(NCc1ccc(OC(F)F)cc1)c1ccc2ncccc2c1 [Compound 56]	≤ 30	–
Cc1ccc(CNC(=O)c2ccc3ncsc3c2)cc1 [Compound 189]	–	≤ 10
